Test results: patent publication US9828360B2 (Array BioPharma Inc., priority 2012, dated 2017)

Experiments:
Assay in all cases: KinaseProfiler off-target kinase profiling
Assay type in all cases: biochemical
Conditions in all cases: 10 μM, ATP near Km
ALK4 = target: T1, ALK4 (Homo sapiens, UniProt P36896)
T1 construct: purchased Millipore, Inc. (KinaseProfiler service)
Outline: (§1)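 Single-point testing at 10 μM compound, run in duplicate, with ATP near the Km of each individual kinase. Values are percent of control (POC), averaged over the two replicates.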

Abl-P = target: T2, Abl-P (Homo sapiens, UniProt P00519)
T2 construct: purchased Millipore, Inc. (KinaseProfiler service)
Outline: as §1

Axl = target: T3, Axl (Homo sapiens, UniProt P30530)
T3 construct: purchased Millipore, Inc. (KinaseProfiler service)
Outline: as §1

BTK = target: T4, BTK (Homo sapiens, UniProt Q06187)
T4 construct: purchased Millipore, Inc. (KinaseProfiler service)
Outline: as §1

CAMK2b = target: T5, CAMK2b (Homo sapiens, UniProt Q13554)
T5 construct: purchased Millipore, Inc. (KinaseProfiler service)
Outline: as §1

CDK5/p35 = target: T6, CDK5/p35 (Homo sapiens, UniProt Q00535)
T6 construct: purchased Millipore, Inc. (KinaseProfiler service)
Outline: as §1

CDK6/cyclinD3 = target: T7, CDK6/cyclinD3 (Homo sapiens, UniProt Q00534)
T7 construct: purchased Millipore, Inc. (KinaseProfiler service)
Outline: as §1

CK1gamma2 = target: T8, CK1gamma2 (Homo sapiens, UniProt P78368)
T8 construct: purchased Millipore, Inc. (KinaseProfiler service)
Outline: as §1

CK2 = target: T9, CK2 (Homo sapiens, UniProt P68400)
T9 construct: purchased Millipore, Inc. (KinaseProfiler service)
Outline: as §1

DCAMKL2 = target: T10, DCAMKL2 (Homo sapiens, UniProt Q8N568)
T10 construct: purchased Millipore, Inc. (KinaseProfiler service)
Outline: as §1

DYRK2 = target: T11, DYRK2 (Homo sapiens, UniProt Q92630)
T11 construct: purchased Millipore, Inc. (KinaseProfiler service)
Outline: as §1

EphA3 = target: T12, EphA3 (Homo sapiens, UniProt P29320)
T12 construct: purchased Millipore, Inc. (KinaseProfiler service)
Outline: as §1

EphA4 = target: T13, EphA4 (Homo sapiens, UniProt P54764)
T13 construct: purchased Millipore, Inc. (KinaseProfiler service)
Outline: as §1

EphB4 = target: T14, EphB4 (Homo sapiens, UniProt P54760)
T14 construct: purchased Millipore, Inc. (KinaseProfiler service)
Outline: as §1

FGFR3 = target: T15, FGFR3 (Homo sapiens, UniProt P22607)
T15 construct: purchased Millipore, Inc. (KinaseProfiler service)
Outline: as §1

HIPK1 = target: T16, HIPK1 (Homo sapiens, UniProt Q86Z02)
T16 construct: purchased Millipore, Inc. (KinaseProfiler service)
Outline: as §1

Haspin = target: T17, Haspin (Homo sapiens, UniProt Q8TF76)
T17 construct: purchased Millipore, Inc. (KinaseProfiler service)
Outline: as §1

IGF-1R = target: T18, IGF-1R (Homo sapiens, UniProt P08069)
T18 construct: purchased Millipore, Inc. (KinaseProfiler service)
Outline: as §1

IR Activated = target: T19, IR Activated (Homo sapiens, UniProt P06213)
T19 construct: purchased Millipore, Inc. (KinaseProfiler service)
Outline: as §1

IRAK1 = target: T20, IRAK1 (Homo sapiens, UniProt P51617)
T20 construct: purchased Millipore, Inc. (KinaseProfiler service)
Outline: as §1

IRAK4 = target: T21, IRAK4 (Homo sapiens, UniProt Q9NWZ3)
T21 construct: purchased Millipore, Inc. (KinaseProfiler service)
Outline: as §1

Lck = target: T22, Lck (Homo sapiens, UniProt P06239)
T22 construct: purchased Millipore, Inc. (KinaseProfiler service)
Outline: as §1

MAPKAP-K2 = target: T23, MAPKAP-K2 (Homo sapiens, UniProt P49137)
T23 construct: purchased Millipore, Inc. (KinaseProfiler service)
Outline: as §1

MKK6 = target: T24, MKK6 (Homo sapiens, UniProt P52564)
T24 construct: purchased Millipore, Inc. (KinaseProfiler service)
Outline: as §1

MKK7beta = target: T25, MKK7beta (Homo sapiens, UniProt O14733)
T25 construct: purchased Millipore, Inc. (KinaseProfiler service)
Outline: as §1

MRCKbeta = target: T26, MRCKbeta (Homo sapiens, UniProt Q9Y5S2)
T26 construct: purchased Millipore, Inc. (KinaseProfiler service)
Outline: as §1

MSK2 = target: T27, MSK2 (Homo sapiens, UniProt O75676)
T27 construct: purchased Millipore, Inc. (KinaseProfiler service)
Outline: as §1

MST1 = target: T28, MST1 (Homo sapiens, UniProt Q13043)
T28 construct: purchased Millipore, Inc. (KinaseProfiler service)
Outline: as §1

NEK3 = target: T29, NEK3 (Homo sapiens, UniProt P51956)
T29 construct: purchased Millipore, Inc. (KinaseProfiler service)
Outline: as §1

PDGFRbeta = target: T30, PDGFRbeta (Homo sapiens, UniProt P09619)
T30 construct: purchased Millipore, Inc. (KinaseProfiler service)
Outline: as §1

PKCbetaI = target: T31, PKCbetaI (Homo sapiens, UniProt P05771)
T31 construct: purchased Millipore, Inc. (KinaseProfiler service)
Outline: as §1

PTK6 = target: T32, PTK6 (Homo sapiens, UniProt Q13882)
T32 construct: purchased Millipore, Inc. (KinaseProfiler service)
Outline: as §1

Pim-1 = target: T33, Pim-1 (Homo sapiens, UniProt P11309)
T33 construct: purchased Millipore, Inc. (KinaseProfiler service)
Outline: as §1

Plk3 = target: T34, Plk3 (Homo sapiens, UniProt Q9H4B4)
T34 construct: purchased Millipore, Inc. (KinaseProfiler service)
Outline: as §1

RIPK2 = target: T35, RIPK2 (Homo sapiens, UniProt O43353)
T35 construct: purchased Millipore, Inc. (KinaseProfiler service)
Outline: as §1

ROCK-I = target: T36, ROCK-I (Homo sapiens, UniProt Q13464)
T36 construct: purchased Millipore, Inc. (KinaseProfiler service)
Outline: as §1

ROCK-II = target: T37, ROCK-II (Homo sapiens, UniProt O75116)
T37 construct: purchased Millipore, Inc. (KinaseProfiler service)
Outline: as §1

Rsk3 = target: T38, Rsk3 (Homo sapiens, UniProt Q15349)
T38 construct: purchased Millipore, Inc. (KinaseProfiler service)
Outline: as §1

TAO3 = target: T39, TAO3 (Homo sapiens, UniProt Q9H2K8)
T39 construct: purchased Millipore, Inc. (KinaseProfiler service)
Outline: as §1

ULK3 = target: T40, ULK3 (Homo sapiens, UniProt Q6PHR2)
T40 construct: purchased Millipore, Inc. (KinaseProfiler service)
Outline: as §1

p38beta = target: T41, p38beta (Homo sapiens, UniProt Q15759)
T41 construct: purchased Millipore, Inc. (KinaseProfiler service)
Outline: as §1

T23 sequence (P49137 whole entry): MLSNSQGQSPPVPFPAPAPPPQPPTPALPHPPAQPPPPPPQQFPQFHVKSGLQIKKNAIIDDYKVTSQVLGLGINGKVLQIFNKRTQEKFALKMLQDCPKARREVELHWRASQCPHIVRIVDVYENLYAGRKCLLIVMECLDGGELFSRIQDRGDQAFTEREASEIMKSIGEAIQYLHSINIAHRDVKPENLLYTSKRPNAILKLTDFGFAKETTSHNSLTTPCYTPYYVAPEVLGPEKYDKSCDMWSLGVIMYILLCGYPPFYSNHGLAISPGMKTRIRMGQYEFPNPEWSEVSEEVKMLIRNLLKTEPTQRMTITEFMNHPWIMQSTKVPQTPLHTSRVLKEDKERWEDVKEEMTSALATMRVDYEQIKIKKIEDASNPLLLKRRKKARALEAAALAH
T1 sequence (P36896 24-505): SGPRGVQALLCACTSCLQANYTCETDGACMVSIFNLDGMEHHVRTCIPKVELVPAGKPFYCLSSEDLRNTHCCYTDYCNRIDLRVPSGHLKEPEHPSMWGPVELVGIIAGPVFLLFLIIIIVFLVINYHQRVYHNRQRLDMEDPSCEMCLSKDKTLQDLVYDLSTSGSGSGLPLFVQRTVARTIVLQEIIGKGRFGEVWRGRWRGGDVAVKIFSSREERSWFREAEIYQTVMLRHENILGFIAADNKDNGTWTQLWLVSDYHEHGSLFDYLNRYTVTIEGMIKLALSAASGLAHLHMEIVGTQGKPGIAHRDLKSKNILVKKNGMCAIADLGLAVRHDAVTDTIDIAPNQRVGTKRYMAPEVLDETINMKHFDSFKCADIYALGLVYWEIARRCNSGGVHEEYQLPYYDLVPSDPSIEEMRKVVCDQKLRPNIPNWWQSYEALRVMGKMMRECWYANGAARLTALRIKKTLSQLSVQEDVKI
T34 sequence (Q9H4B4 whole entry): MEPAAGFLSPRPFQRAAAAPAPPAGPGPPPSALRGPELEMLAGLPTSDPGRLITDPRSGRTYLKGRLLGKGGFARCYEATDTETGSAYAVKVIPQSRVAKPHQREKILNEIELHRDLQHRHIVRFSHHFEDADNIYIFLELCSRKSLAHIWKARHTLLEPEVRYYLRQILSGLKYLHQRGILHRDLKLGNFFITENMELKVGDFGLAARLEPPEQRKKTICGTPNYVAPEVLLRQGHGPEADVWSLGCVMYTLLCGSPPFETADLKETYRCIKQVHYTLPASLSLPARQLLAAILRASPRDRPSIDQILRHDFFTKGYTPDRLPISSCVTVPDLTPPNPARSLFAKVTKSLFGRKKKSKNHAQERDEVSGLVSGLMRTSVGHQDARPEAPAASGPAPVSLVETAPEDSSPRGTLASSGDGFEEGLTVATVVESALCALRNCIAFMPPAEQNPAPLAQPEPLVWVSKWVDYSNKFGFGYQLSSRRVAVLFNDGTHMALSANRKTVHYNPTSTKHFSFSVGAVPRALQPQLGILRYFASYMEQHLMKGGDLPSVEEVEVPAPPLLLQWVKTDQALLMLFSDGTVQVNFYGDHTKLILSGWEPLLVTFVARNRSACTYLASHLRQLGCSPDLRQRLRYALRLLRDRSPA
T35 sequence (O43353 whole entry): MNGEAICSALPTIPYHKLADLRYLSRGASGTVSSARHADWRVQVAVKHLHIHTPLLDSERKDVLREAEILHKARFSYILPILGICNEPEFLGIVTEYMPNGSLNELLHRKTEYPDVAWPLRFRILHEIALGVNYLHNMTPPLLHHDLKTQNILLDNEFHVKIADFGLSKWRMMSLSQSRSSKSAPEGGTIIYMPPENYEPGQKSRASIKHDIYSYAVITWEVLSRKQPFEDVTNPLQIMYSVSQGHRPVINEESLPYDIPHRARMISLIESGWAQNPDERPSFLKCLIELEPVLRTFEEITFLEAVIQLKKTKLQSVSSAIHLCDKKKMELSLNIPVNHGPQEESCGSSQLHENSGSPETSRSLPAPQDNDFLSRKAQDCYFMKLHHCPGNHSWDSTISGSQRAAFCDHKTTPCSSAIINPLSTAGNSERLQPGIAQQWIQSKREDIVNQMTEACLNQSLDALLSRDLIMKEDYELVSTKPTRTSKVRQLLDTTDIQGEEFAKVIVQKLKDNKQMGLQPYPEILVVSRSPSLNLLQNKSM
T30 sequence (P09619 33-1106): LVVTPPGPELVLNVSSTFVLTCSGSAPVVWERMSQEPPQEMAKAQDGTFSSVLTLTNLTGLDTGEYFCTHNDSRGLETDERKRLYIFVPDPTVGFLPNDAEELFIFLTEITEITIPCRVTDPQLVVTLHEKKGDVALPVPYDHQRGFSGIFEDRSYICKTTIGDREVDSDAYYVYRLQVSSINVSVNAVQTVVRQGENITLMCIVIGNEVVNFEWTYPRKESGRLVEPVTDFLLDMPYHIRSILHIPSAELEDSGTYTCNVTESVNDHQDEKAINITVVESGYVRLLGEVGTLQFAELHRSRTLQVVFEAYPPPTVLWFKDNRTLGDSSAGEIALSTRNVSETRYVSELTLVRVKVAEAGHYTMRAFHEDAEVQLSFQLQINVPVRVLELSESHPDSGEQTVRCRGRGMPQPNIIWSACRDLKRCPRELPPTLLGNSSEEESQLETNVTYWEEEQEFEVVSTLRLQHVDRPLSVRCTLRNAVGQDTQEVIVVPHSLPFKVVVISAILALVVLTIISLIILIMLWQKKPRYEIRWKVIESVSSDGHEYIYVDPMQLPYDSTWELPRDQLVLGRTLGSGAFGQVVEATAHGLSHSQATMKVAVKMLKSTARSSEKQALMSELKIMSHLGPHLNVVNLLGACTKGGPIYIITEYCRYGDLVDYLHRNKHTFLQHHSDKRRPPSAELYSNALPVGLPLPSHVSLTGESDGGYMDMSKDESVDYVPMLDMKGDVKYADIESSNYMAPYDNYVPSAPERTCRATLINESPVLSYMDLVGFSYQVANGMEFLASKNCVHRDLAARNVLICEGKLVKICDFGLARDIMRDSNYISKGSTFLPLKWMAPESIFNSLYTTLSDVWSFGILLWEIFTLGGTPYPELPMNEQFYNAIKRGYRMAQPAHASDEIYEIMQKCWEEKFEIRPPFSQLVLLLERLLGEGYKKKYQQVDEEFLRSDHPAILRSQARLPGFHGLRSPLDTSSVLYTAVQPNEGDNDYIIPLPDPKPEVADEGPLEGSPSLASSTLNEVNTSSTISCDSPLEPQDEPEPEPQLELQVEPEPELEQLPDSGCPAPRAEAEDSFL
T20 sequence (P51617 whole entry): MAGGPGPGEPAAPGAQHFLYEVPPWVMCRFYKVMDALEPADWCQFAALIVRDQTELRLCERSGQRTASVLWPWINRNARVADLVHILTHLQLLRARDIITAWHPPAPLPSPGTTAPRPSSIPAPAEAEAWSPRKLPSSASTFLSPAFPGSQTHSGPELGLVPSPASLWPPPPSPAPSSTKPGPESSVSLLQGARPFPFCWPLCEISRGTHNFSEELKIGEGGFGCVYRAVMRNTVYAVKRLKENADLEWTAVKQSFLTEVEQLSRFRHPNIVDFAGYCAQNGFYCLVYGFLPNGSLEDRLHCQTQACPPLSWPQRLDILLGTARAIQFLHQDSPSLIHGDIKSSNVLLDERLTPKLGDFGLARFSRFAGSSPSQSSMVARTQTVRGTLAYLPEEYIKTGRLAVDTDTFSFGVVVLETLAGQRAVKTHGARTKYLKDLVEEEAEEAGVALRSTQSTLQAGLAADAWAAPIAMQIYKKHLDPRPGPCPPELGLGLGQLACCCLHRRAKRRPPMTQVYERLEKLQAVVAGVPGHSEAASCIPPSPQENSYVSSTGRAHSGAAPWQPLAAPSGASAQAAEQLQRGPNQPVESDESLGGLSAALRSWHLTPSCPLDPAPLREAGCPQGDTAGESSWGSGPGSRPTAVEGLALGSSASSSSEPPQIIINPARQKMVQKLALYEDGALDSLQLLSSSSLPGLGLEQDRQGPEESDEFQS
T5 sequence (Q13554 whole entry): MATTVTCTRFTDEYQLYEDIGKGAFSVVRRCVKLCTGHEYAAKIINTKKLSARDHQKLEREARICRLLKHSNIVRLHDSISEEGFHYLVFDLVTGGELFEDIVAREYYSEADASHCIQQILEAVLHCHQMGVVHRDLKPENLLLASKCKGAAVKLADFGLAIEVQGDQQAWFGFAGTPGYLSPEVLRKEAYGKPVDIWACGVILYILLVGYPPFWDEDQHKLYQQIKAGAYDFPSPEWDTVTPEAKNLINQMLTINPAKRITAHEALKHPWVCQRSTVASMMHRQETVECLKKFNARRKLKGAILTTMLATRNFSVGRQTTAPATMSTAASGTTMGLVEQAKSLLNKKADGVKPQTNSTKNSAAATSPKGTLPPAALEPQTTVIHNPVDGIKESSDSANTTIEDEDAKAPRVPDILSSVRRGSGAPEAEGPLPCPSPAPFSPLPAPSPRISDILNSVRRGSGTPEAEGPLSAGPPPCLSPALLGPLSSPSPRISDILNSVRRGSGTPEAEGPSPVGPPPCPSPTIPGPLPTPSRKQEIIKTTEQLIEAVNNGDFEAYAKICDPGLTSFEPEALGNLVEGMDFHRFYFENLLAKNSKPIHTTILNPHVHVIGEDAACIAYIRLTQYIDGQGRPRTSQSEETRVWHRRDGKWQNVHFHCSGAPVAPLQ
T28 sequence (Q13043 whole entry): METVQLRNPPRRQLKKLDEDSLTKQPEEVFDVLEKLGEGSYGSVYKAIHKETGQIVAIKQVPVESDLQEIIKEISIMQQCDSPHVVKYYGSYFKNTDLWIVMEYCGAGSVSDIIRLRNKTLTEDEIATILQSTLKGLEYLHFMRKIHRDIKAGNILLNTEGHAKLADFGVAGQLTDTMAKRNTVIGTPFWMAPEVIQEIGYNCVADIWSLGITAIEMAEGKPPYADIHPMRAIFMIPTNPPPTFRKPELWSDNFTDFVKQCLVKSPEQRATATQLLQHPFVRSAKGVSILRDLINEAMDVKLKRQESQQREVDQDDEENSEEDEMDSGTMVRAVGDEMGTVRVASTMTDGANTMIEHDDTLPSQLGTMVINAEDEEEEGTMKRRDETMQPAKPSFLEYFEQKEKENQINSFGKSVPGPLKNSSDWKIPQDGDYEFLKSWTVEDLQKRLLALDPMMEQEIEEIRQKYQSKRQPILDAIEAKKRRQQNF

SMILES: COCCN1C[C@@H](NC(=O)Nc2sc(C(C)C)nc2-c2ccccc2)[C@H](c2ccccc2)C1 [Example 48, 1-(2-isopropyl-4-phenylthiazol-5-yl)-3-((3S,4R)-1-(2-methoxyethyl)-4-phenylpyrrolidin-3-yl)urea]
- Avg POC (ALK4): 88.5% of control
- Avg POC (Abl-P): 147.5% of control
- Avg POC (Axl): 113% of control
- Avg POC (BTK): 97.5% of control
- Avg POC (CAMK2b): 90% of control
- Avg POC (CDK5/p35): 109.5% of control
- Avg POC (CDK6/cyclinD3): 112.5% of control
- Avg POC (CK1gamma2): 94.5% of control
- Avg POC (CK2): 106% of control
- Avg POC (DCAMKL2): 142% of control
- Avg POC (DYRK2): 103.5% of control
- Avg POC (EphA3): 112% of control
- Avg POC (EphA4): 105.5% of control
- Avg POC (EphB4): 99% of control
- Avg POC (FGFR3): 103.5% of control
- Avg POC (HIPK1): 119.5% of control
- Avg POC (Haspin): 117% of control
- Avg POC (IGF-1R): 85.5% of control
- Avg POC (IR Activated): 111.5% of control
- Avg POC (IRAK1): 100.5% of control
- Avg POC (IRAK4): 88% of control
- Avg POC (Lck): 102% of control
- Avg POC (MAPKAP-K2): 109.5% of control
- Avg POC (MKK6): 121% of control
- Avg POC (MKK7beta): 98% of control
- Avg POC (MRCKbeta): 140.5% of control
- Avg POC (MSK2): 103.5% of control
- Avg POC (MST1): 93.5% of control
- Avg POC (NEK3): 129% of control
- Avg POC (PDGFRbeta): 103.5% of control
- Avg POC (PKCbetaI): 97% of control
- Avg POC (PTK6): 99.5% of control
- Avg POC (Pim-1): 134% of control
- Avg POC (Plk3): 113.5% of control
- Avg POC (RIPK2): 108% of control
- Avg POC (ROCK-I): 103.5% of control
- Avg POC (ROCK-II): 104.5% of control
- Avg POC (Rsk3): 108% of control
- Avg POC (TAO3): 105.5% of control
- Avg POC (ULK3): 100% of control
- Avg POC (p38beta): 115% of control
